Data: US9895329B1, “Formyl peptide receptor 1 antagonists and uses thereof” (Chang Gung University, priority 2016, dated 2018)
pIC50: −log10 of the molar value.

Tests used:
[1] = test system: human neutrophils; test: Elastase release from fMLF-activated human neutrophils; type: cell-based; conditions: Neutrophil; fMLF (0.1 μM)/CB-activated human neutrophils; read-out: IC50, suppression of elastase release
Experimental: (§1) Human neutrophils were obtained in lipopolysaccharide-free conditions by means of dextran sedimentation and Ficoll centrifugation.
MeO-Suc-Ala-Ala-Pro-Val-p-nitroanilide was employed as the elastase substrate for the determination of elastase release. Briefly, after supplementation with Methoxysuccinyl-Ala-Ala-Pro-Val-p-nitroanilide (Ms-Ala-Ala-Pro-Val-pNA) (100 μM), neutrophils (6×10^5/mL) were equilibrated at 37° C. for 2 min and incubated with LS-PH at various concentrations for 5 min. Cells were activated with fMLF (0.1 μM) for 10 min in the pre-process of cytochalasin B (CB, 0.5 μg/mL) for 3 min, and changes in absorbance at 405 nm were continuously monitored to evaluate elastase release. Results are expressed as the percentage of elastase release in the drug-free control group, DMSO.

[2] = test system: human neutrophils; type: cell-based; conditions: 0.03 to 3 μM
Experimental: Cytotoxicity of LS-PH towards neutrophils was evaluated by measuring the level of lactate dehydrogenase (LDH) using a commercial kit (Promega). LDH is a cytosolic enzyme that is released only when cell membrane is disrupted (i.e., cell death), thus may be used as an indicator of cell viability. The kit measures a color change at (λmax=450 nm) when LDH reduces NAD to NADH. Cytotoxicity was expressed as the percent LDH activity obtained in cell-free medium compared to the total LDH activity. Total LDH activity was determined by lysing cells with 0.1% Triton X-100 for 30 min at 37° C.

[3] = test system: human neutrophils; test: Intracellular ROS formation in fMLF-activated human neutrophils; type: cell-based
Experimental: as §1
After supplementation with dihydrorhodamine 123 (2 μM), neutrophils (1×10^6/mL) were equilibrated at 37° C. for 12 min and incubated with LS-PH at various concentrations for 5 min. Cells were activated with fMLF (0.1 μM) for 5 min in the pre-process of cytochalasin B (CB, 0.5 μg/mL) for 3 min. Intracellular ROS was determined by use of flow cytometer.

[4] = target: T1, FPR1 (Homo sapiens, UniProt P21462); test: FPR1 binding assay (FNLFNYK, flow cytometry); conditions: neutrophils, FNLFNYK 4 nM, 4° C.; read-out: IC50, suppression of binding of FPR1-specific ligand FNLFNYK
T1 construct: endogenous in cells; host or cells: neutrophils
T1 sequence (P21462 1-350): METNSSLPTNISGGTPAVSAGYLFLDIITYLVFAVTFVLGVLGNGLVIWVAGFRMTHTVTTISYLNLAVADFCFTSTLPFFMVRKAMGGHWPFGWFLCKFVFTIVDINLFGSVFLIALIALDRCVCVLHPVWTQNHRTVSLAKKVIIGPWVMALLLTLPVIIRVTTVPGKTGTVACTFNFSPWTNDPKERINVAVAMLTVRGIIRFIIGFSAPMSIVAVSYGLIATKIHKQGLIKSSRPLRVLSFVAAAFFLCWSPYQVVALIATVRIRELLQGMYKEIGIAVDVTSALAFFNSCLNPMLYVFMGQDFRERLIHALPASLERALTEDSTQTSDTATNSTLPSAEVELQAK
Experimental: Neutrophils (2×10^6 cells/ml) were incubated with various concentrations of compound LS-PH (0.03 to 3 μM) or fMLF (10 μM) at 4° C. for 5 min, and labeled with FPR1-specific ligand […] (4 nM) for 30 min. Then, the binding was determined by use of flow cytometry.

[5] = test system: human neutrophils; test: O2•− (superoxide) production in fMLF-activated human neutrophils; type: cell-based; conditions: Neutrophil; fMLF (0.1 μM)/CB-activated human neutrophils; read-out: IC50, suppression of superoxide production
Experimental: as §1
O2^•− production was determined based on the SOD-inhibitable reduction of ferricytochrome c. Briefly, neutrophils (6×10^5/mL) were treated with LS-PH at 37° C. at various concentrations (0.03 to 3 μM) for 5 min after being supplementing with 0.5 mg/mL ferricytochrome c and 1 mM Ca^2+. Cells were activated with formyl-L-methionyl-L-leucyl-L-phenylalanine (fMLF, 0.1 μM) for 10 min in the pre-process of cytochalasin B (CB, 1 μg/mL) for 3 min. Changes in absorbance with the reduction of ferricytochrome c at 550 nm were continuously monitored in a double-beam, six-cell positioner spectrophotometer with constant stirring (Hitachi U-3010, Tokyo, Japan). Calculations were based on the differences in the reactions with and without SOD (100 U ml^−1) divided by the extinction coefficient for the reduction of ferricytochrome c (ε=21.1 mM^−1/10 mm).

## C=C(C)C1CCC2(C(=O)O)CC[C@]3(C)[C@H](CC[C@@H]4[C@@](C)(CCC(=O)O)[C@H](C(=C)C)CC[C@]43C)C12 (some centres unmarked) [LS-PH, (E) 3,4-Seco-4(23), 20(29)-lupadiene-3,28-dioic acid]
[1]
  pIC50: ~6.15
[2]
  cytotoxicity (LDH release): did not exhibit detectable cytotoxicity
[3]
  suppression of fMLF-induced intracellular ROS formation: suppress fMLF-induced intracellular ROS formation
[4]
  pIC50: ~5.76
[5]
  pIC50: ~6.59
